Test results taken from patent US11964973B2 (priority 2019, dated 2024).
Read-outs that look alike come from different tables or passages of the source.

Tests used:
[1] = test system: naïve human CD8 T cells (IFN-γ); assay: Human CD8 T cells IFN-γ assay; type: cell-based; details: T-cell
Description: Assay 8: Human CD8 T Cells IFN-γ Assay
Frozen naïve human CD8 T cells were thawed in AIM-V media, incubated for 2 h in 37° C., and counted. The 384-well tissue culture plate was coated overnight at 4° C. with 20 μL anti-human CD3 at 0.05 μg/mL in PBS, which was removed off the plate before 40,000 cells per 40 microliters CD8 T cells with 0.1 μg/mL soluble anti-human CD28 were added to each well. The compounds were transferred using an Echo liquid handler to the cell plate immediately after the cells were plated. After 20 h incubation at 37° C. incubator, 3 microliters per well supernatants transferred into a new 384-well white assay plate for cytokine measurement.
Interferon-γ (IFN-γ) was quantitated using the AlphLISA kit (Cat #AL217) as described by the manufacturer manual (Perkin Elmer). The counts from each well were converted to IFN-γ concentration (pg/mL).

[2] = molecular target: DGKα (Homo sapiens (Human), UniProt P23743); assay: biochemical; type: biochemical; details: liposome (LIPGLO) assay; read-out: DGKα LIPGLO IC50
Chain of DGKα (P23743 whole entry, looked up): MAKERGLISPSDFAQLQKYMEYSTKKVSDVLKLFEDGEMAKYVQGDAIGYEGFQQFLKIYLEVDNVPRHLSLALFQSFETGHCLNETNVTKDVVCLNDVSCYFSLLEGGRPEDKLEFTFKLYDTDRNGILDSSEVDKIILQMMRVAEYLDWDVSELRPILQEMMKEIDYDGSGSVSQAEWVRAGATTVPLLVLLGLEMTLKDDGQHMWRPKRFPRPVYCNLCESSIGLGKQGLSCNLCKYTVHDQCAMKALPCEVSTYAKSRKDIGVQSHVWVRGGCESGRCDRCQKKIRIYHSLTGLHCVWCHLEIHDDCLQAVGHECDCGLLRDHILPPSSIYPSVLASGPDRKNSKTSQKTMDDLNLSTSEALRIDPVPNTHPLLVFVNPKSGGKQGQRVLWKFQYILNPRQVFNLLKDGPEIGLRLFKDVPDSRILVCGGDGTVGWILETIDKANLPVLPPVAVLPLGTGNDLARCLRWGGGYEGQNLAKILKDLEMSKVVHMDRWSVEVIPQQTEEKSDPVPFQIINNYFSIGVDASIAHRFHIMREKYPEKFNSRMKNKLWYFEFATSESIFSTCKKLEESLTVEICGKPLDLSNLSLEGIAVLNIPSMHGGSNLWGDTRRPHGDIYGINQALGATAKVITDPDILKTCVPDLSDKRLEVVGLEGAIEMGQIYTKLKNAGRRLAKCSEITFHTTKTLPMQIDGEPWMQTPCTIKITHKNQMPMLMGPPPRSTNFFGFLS

[3] = test system: Human venous whole blood (IFN-γ); assay: Human whole blood IFN-γ assay; type: cell-based
Description: Assay 10: Human Whole Blood IFN-γ Assay
Human venous whole blood (22.5 μL per well), obtained from healthy donors, was pre-treated with compounds for one hour at 37° C. in a humidified 95% air/5% CO2 incubator. The blood was stimulated with 2.5 μL anti-human CD3 and anti-CD28 mAb at a final concentration of 1 μg/mL each for 24 hours at 37° C. IFN-γ in the supernatants was measured using AlphLISA kit (Cat #AL217).

[4] = molecular target: human DGKζ (Homo sapiens (Human), UniProt Q13574); assay: biochemical; type: biochemical; details: liposome (LIPGLO) assay; read-out: DGKζ LIPGLO IC50
Chain of human DGKζ (Q13574 whole entry, looked up): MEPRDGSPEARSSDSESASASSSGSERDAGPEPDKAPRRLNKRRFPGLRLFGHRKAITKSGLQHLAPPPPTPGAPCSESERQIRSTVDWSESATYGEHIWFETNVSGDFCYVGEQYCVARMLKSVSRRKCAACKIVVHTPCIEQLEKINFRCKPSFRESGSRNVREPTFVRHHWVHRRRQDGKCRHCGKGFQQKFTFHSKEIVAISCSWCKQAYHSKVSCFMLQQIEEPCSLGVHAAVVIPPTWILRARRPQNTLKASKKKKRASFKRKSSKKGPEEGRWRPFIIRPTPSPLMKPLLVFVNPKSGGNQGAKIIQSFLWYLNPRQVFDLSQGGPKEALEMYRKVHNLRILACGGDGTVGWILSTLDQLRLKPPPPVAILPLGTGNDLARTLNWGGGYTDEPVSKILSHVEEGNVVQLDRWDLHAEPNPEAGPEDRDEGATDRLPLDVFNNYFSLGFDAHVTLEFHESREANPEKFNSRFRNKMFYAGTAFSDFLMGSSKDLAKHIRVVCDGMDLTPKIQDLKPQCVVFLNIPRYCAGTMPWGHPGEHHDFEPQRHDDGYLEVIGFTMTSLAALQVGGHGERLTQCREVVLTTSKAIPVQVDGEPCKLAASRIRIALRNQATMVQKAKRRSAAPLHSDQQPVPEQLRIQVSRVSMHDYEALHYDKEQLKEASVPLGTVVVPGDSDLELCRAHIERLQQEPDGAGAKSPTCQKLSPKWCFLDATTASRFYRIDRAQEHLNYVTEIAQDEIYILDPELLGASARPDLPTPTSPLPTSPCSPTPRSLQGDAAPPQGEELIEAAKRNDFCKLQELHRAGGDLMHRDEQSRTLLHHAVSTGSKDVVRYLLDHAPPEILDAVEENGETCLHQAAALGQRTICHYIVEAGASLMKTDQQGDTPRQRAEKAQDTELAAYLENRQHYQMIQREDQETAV

[5] = test system: naïve human CD8 T cells; assay: CellTiter-Glo CD8 T cell proliferation assay; type: cell-based; details: Homo sapiens, read-out: CD8 GLO Normalized EC50
Procedure, shortened: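 Thawed naïve human CD8 T cells (20 k/well) were stimulated with plate-bound anti-CD3 (0.1 μg/mL coating) and 0.5 μg/ml soluble anti-CD28, with compounds added right after plating. After 72 h at 37° C, proliferation was read by CellTiter-Glo luminescence. The signal from stimulated cells was taken as background.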

[6] = test system: OT-1 CD8+ T cells with SIINFEKL-loaded MC38 tumor cells; assay: Murine cytotoxic T lymphocyte assay (IFN-γ); type: cell-based, mouse; details: Mus musculus, MC-38; for IC50: murine cytotoxic T lymphocyte, IFN-γ, read-out: msCTL INFg IC50; for EC50: murine cytotoxic T lymphocyte assay, read-out: msCTL
Procedure, shortened: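 OT-1 CD8+ T cells, expanded 5 days with OVA peptide and mIL2, pretreated 1 h with DGK inhibitor, then cocultured overnight at 37 °C with peptide-pulsed MC38 cells (1:10 ratio). IFN-γ in supernatant measured after 24 h by AlphaLisa.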

[7] = molecular target: Human DGKα(9-727) (Homo sapiens (Human), UniProt P23743); assay: biochemical; details: liposome (LIPGLO) assay; Table A; read-out: DGKα LIPGLO IC50
Chain of Human DGKα(9-727) (P23743 whole entry, looked up): as the sequence (P23743 whole entry, looked up) above

[8] = molecular target: full length human DGKζ (Homo sapiens (Human), UniProt Q13574); assay: In vitro DGK inhibition assay, Method B (DGKζ LIPGLO, extruded liposomes); type: biochemical; details: liposome (LIPGLO) assay; read-out: DGKζ LIPGLO IC50
Chain of full length human DGKζ (Q13574 whole entry, looked up): as the sequence (Q13574 whole entry, looked up) above

[9] = test system: human venous whole blood, CD8 positive population (pERK); assay: DGK human whole blood pERK assay; type: cell-based
Procedure, shortened: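 Read-out is the pERK-positive fraction of CD8+ cells measured by flow cytometry. Donor venous blood (heparin) saw compound for one hour at 37° C before a 15-minute anti-CD3 challenge (1 μg/mL final) with cross-linking anti-mouse IgG.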

[10] = read-out: HuCD8 INFG Normalized EC50
[11] = human whole blood, anti-CD3 plus anti-CD28, 24 hours, read-out: INFg Whole Blood Normalized Agonist EC50
[12] = Homo sapiens, 24 h, human whole blood, anti-CD3 plus anti-CD28, 24 hours, read-out: INFg Whole Blood Normalized Agonist EC50
[13] = Homo sapiens, human whole blood IFN-γ, read-out: INFg Whole Blood
[14] = human whole blood, CD8 positive population, anti-CD3 stimulation; top concentration 20 μM; read-out: DGK HWB (human whole blood pERK)
[15] = read-out: DGK HWB (human whole blood pERK); human whole blood, CD8 positive population, anti-CD3 stimulation; top concentration 20 μM

CCC(C)(C)c1ccc(O[C@@H]2CCN(c3cc(=O)n(C)c4ccc(C#N)nc34)C[C@H]2C)cc1 (single isomer, unassigned) [Example 83]
EC50 [1, 10]: 0.0025 µM
IC50 [2]: 0.28 µM
EC50 [3, 11]: 0.36 µM
IC50 [4]: 5.8 µM

Cn1c(=O)c(Br)c(N2CCC(Oc3ccc(OC(F)(F)F)cc3)CC2)c2nc(C#N)ccc21 [Example 239, 7-bromo-5-methyl-6-oxo-8-(4-(4-(trifluoromethoxy)phenoxy)piperidin-1-yl)-5,6-dihydro-1,5-naphthyridine-2-carbonitrile]
EC50 ([1]; read-out: HuCD8 INFG): 0.82 µM

Cc1ccc(OC2CCN(c3c(C#N)c(=O)n(C)c4ccc(Cl)nc34)CC2)cc1 [Example 21, 6-chloro-1-methyl-2-oxo-4-(4-(p-tolyloxy)piperidin-1-yl)-1,2-dihydro-1,5-naphthyridine-3-carbonitrile]
EC50 [1, 10]: 0.16 µM
EC50 [5]: 0.092 µM
IC50 [2]: 0.77 µM
IC50 [6]: 1.7 µM
IC50 [4]: 7.8 µM

C[C@@H]1CN(c2cc(=O)n(C)c3ccc(C#N)nc23)CC[C@H]1Oc1ccc(OC(C)(C)C)cc1 [Example 85, 8-((3R,4R)-4-(4-(tert-butoxy)phenoxy)-3-methylpiperidin-1-yl)-5-methyl-6-oxo-5,6-dihydro-1,5-naphthyridine-2-carbonitrile]
EC50 [1, 10]: 0.61 µM
IC50 [2]: 0.08 µM
EC50 [3, 11]: 2.2 µM

Cn1c(=O)c(C#N)c(N2CCC(Oc3ccccc3Cl)CC2)c2nc(Cl)ccc21 [Example 18, 6-chloro-4-(4-(2-chlorophenoxy)piperidin-1-yl)-1-methyl-2-oxo-1,2-dihydro-1,5-naphthyridine-3-carbonitrile]
EC50 [1, 10]: 0.19 µM
EC50 [5]: 0.079 µM
IC50 [2]: 2.6 µM
IC50 [6]: 1.5 µM
EC50 [3, 12]: 10 µM
IC50 [4]: 13 µM

COc1ccc(-c2c(N3CCC(Oc4ccc(OC(F)(F)F)cc4)CC3)c3nc(C#N)ccc3n(C)c2=O)cn1 [Example 240, 7-(6-methoxypyridin-3-yl)-5-methyl-6-oxo-8-(4-(4-(trifluoromethoxy)phenoxy)piperidin-1-yl)-5,6-dihydro-1,5-naphthyridine-2-carbonitrile]
EC50 ([1]; read-out: HuCD8 INFG): 1 µM
EC50 [6]: 0.58 µM
EC50 [3, 13]: 5.3 µM

Cn1c(=O)c(C#N)c(N2CCC(Oc3ccc(C(C)(C)C)cc3)CC2)c2nc(Cl)ccc21 [Example 15, 4-(4-(4-(tert-butyl)phenoxy)piperidin-1-yl)-6-chloro-1-methyl-2-oxo-1,2-dihydro-1,5-naphthyridine-3-carbonitrile]
EC50 [1, 10]: 0.87 µM
EC50 [5]: 0.32 µM
IC50 [2]: 0.51 µM
IC50 [6]: 0.29 µM
EC50 [3, 12]: 7.6 µM
IC50 [4]: 7.4 µM

CC(C)O[C@@H]1CN(c2cc(=O)n(C)c3ccc(C#N)nc23)CC[C@H]1Oc1cccc(C(F)(F)F)c1 (relative stereo) [Example 396, trans-8-(3-Isopropoxy-4-(3-(trifluoromethyl)phenoxy)piperidin-1-yl)-5-methyl-6-oxo-5,6-dihydro-1,5-naphthyridine-2-carbonitrile]
IC50 [7]: 38 µM
IC50 [8]: 3.6 µM
EC50 [9, 14]: 14 µM

Cn1c(=O)c(Cl)c(N2CCC(Oc3ccc(OC(F)(F)F)cc3)CC2)c2nc(C#N)ccc21 [Example 238, 7-chloro-5-methyl-6-oxo-8-(4-(4-(trifluoromethoxy)phenoxy)piperidin-1-yl)-5,6-dihydro-1,5-naphthyridine-2-carbonitrile]
EC50 ([1]; read-out: HuCD8 INFG): 0.16 µM

COc1cc(-c2c(N3CCC(Oc4ccc(OC(F)(F)F)cc4)CC3)c3nc(C#N)ccc3n(C)c2=O)ccn1 [Example 241, 7-(2-methoxypyridin-4-yl)-5-methyl-6-oxo-8-(4-(4-(trifluoromethoxy)phenoxy)piperidin-1-yl)-5,6-dihydro-1,5-naphthyridine-2-carbonitrile]
EC50 ([1]; read-out: HuCD8 INFG): 1.3 µM
EC50 [6]: 0.57 µM
EC50 [3, 13]: 10 µM

Cn1c(=O)cc(N2CCC(Oc3ccc(OC(F)(F)F)cc3)CC2)c2nc(C#N)ccc21 [Example 52, 5-methyl-6-oxo-8-(4-(4-(trifluoromethoxy)phenoxy)piperidin-1-yl)-5,6-dihydro-1,5-naphthyridine-2-carbonitrile]
EC50 [1, 10]: 1 µM
IC50 [2]: 0.8 µM
IC50 [6]: 0.15 µM
EC50 [3, 12]: 2.7 µM
IC50 [4]: 3.8 µM

CCO[C@H]1CN(c2cc(=O)n(C)c3ccc(C#N)nc23)CC[C@@H]1Oc1cnc(OC(C)C)cn1 [Example 377, 8-((3S,4S)-3-ethoxy-4-((5-isopropoxypyrazin-2-yl)oxy)piperidin-1-yl)-5-methyl-6-oxo-5,6-dihydro-1,5-naphthyridine-2-carbonitrile]
IC50 [7]: 0.13 µM
IC50 [8]: 0.075 µM
EC50 [9, 14]: 0.45 µM

CCO[C@@H]1CN(c2nc(=O)n(C)c3ccc(C#N)nc23)CC[C@H]1Oc1ccc(OC(C)C)cn1 (relative stereo) [Example 401, trans-4-(3-Ethoxy-4-((5-isopropoxypyridin-2-yl)oxy)piperidin-1-yl)-1-methyl-2-oxo-1,2-dihydropyrido[3,2-d]pyrimidine-6-carbonitrile]
IC50 [7]: 0.83 µM
IC50 [8]: 0.39 µM
EC50 [9, 14]: 2.3 µM

CCO[C@H]1CN(c2cc(=O)n(C)c3ccc(C#N)nc23)CC[C@@H]1OCc1cccc(C(F)(F)F)c1 (single isomer, unassigned) [Example 382]
IC50 [7]: 17 µM
IC50 [8]: 130 µM
EC50 ([9]; Homo sapiens, CD8 positive, human whole blood, CD8 positive population, anti-CD3 stimulation; top concentration 20 μM; read-out: DGK HWB (human whole blood pERK)): 20 µM

CCO[C@H]1CN(c2nc(=O)n(C)c3ccc(C#N)nc23)CC[C@@H]1Oc1ccccc1 (relative stereo) [Example 403, trans-4-(3-Ethoxy-4-phenoxypiperidin-1-yl)-1-methyl-2-oxo-1,2-dihydropyrido[3,2-d] pyrimidine-6-carbonitrile]
IC50 [7]: 19 µM
IC50 [8]: 5.3 µM
EC50 [9, 15]: 11 µM

Cn1c(=O)c(F)c(N2CCC(Oc3ccc(OC(F)(F)F)cc3)CC2)c2nc(C#N)ccc21 [Example 237, 7-fluoro-5-methyl-6-oxo-8-(4-(4-(trifluoromethoxy)phenoxy)piperidin-1-yl)-5,6-dihydro-1,5-naphthyridine-2-carbonitrile]
EC50 ([1]; read-out: HuCD8 INFG): 0.34 µM
EC50 [6]: 0.2 µM
EC50 [3, 13]: 3.3 µM

COCCO[C@@H]1CN(c2cc(=O)n(C)c3ccc(C#N)nc23)CC[C@H]1Oc1cccc(C(F)(F)F)c1 [Example 389, 8-((3R,4R)-3-(2-methoxyethoxy)-4-(3-(trifluoromethyl)phenoxy)piperidin-1-yl)-5-methyl-6-oxo-5,6-dihydro-1,5-naphthyridine-2-carbonitrile]
IC50 [7]: 2.5 µM
IC50 [8]: 0.27 µM
EC50 [9, 15]: 3 µM

CCO[C@H]1CN(c2nc(=O)n(C)c3ccc(C#N)nc23)CC[C@@H]1Oc1ccccc1 (relative stereo) [Example 402, trans-4-(3-Ethoxy-4-phenoxypiperidin-1-yl)-1-methyl-2-oxo-1,2-dihydropyrido[3,2-d] pyrimidine-6-carbonitrile]
IC50 [7]: 2.1 µM
IC50 [8]: 0.9 µM
EC50 [9, 15]: 2.8 µM

Cn1c(=O)cc(N2CC[C@@H](Oc3cccc(C(F)(F)F)c3)[C@H](OCC(F)(F)F)C2)c2nc(C#N)ccc21 [Example 393, 5-methyl-6-oxo-8-((3R,4R)-3-(2,2,2-trifluoroethoxy)-4-(3-(trifluoromethyl)phenoxy)piperidin-1-yl)-5,6-dihydro-1,5-naphthyridine-2-carbonitrile]
IC50 [7]: 1.1 µM
IC50 [8]: 0.38 µM
EC50 [9, 15]: 0.68 µM
